Data as given in patent US20090238808A1, “Process for the identification of novel enzyme interacting compounds” (priority 2005, published 2009).

Key:
Experiment in all cases: Kinobeads elution with test compound, mouse brain lysate, MS
Assay type in all cases: binding
Conditions in all cases: kinase released from kinobeads by specific elution
GSK3B = molecular target: T1, GSK3B (Mus musculus, UniProt Q9WV60)
T1 construct: from tissue; host or cells: mouse brain
Source text: (§1) This example illustrates competitive elution of proteins bound to kinobeads with non-modified test compounds (see particularly the fourth aspect of the invention).
(§2) The kinobeads were contacted with mouse brain lysate under conditions that allow the binding of the proteins in the lysate to the ligands. The binding conditions were close to physiological by choosing suitable buffer conditions preserving the function of the proteins. After removing non-captured proteins through a gentle washing procedure the bound proteins were contacted with a test compound for protein elution.
(§3) Various test compounds (see section 2.7) were used to release bound proteins following these steps:
(§4) 1. Resuspend beads with bound proteins (section 2.4) in 1×DP buffer/0.2% NP-40 as 1:3 slurry (volume/volume). 2. Transfer 20 μl the 1:3 slurry into MoBiTech columns (equivalent to 5 μl of beads). 3. Place the column into an Eppendorf tube and centrifuge it for 15 seconds at 800 rpm at 4° C. Close columns with lower lid. 4. Add 10 μl elution buffer containing 1.0 mM of the test compound (concentration ranges of 0.1 to 1.0 mM are suitable). As a control use elution buffer containing 2% DMSO or 2% DMF dependent on the solvent used for dissolving the test compound. Close column with upper lid. 5. Incubate for 30 minutes at 4° C. in an Eppendorf incubator at 700 rpm. 6. […] To harvest the eluate centrifuge 2 minutes at 2.000 rpm in table top centrifuge at room temperature. The typical volume of the eluate is approximately 15 μl. 7. Add 5 μl 4× NuPAGE SDS Sample Buffer (Invitrogen, NP0007) containing 100 mM DTT (DTT has to be added just prior to use). 8. Incubate for 30 minutes at 50° C. 9. Add 1/10 volume of 200 mg/ml iodoacetamide, incubate for 30 min at room temperature, protect from light. This reaction leads to the alkylation of cysteines for mass spectrometry. 10. Before loading samples onto the gel, centrifuge samples for 5 minutes at 15.000 rpm in order to remove precipitates. 11. […] 2.6 Preparation of Stock Solutions used in this Protocol
(§5) Search criteria varied depending on which mass spectrometer was used for the analysis.

CaMK2g = CaMK2g (Mus musculus, UniProt Q923T9)
Chain of CaMK2g (Q923T9 whole entry): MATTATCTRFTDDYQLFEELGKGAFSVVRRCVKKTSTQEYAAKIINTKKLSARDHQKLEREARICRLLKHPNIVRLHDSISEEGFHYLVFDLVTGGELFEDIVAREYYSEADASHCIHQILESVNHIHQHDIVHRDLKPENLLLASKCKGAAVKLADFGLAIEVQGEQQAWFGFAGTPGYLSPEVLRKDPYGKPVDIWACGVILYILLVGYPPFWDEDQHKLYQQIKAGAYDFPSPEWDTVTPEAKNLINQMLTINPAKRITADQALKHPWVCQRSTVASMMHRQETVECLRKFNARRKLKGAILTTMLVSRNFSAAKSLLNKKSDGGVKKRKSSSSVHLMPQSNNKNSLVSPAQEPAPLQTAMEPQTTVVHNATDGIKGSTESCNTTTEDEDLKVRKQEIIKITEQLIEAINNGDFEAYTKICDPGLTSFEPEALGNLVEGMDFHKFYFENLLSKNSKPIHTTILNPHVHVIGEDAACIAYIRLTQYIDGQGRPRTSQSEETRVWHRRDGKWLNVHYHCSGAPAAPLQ
Source text: as §1, §2, §3, §4, §5

AAK1 = AAK1 (Mus musculus, UniProt Q3UHJ0)
Chain of AAK1 (Q3UHJ0 whole entry): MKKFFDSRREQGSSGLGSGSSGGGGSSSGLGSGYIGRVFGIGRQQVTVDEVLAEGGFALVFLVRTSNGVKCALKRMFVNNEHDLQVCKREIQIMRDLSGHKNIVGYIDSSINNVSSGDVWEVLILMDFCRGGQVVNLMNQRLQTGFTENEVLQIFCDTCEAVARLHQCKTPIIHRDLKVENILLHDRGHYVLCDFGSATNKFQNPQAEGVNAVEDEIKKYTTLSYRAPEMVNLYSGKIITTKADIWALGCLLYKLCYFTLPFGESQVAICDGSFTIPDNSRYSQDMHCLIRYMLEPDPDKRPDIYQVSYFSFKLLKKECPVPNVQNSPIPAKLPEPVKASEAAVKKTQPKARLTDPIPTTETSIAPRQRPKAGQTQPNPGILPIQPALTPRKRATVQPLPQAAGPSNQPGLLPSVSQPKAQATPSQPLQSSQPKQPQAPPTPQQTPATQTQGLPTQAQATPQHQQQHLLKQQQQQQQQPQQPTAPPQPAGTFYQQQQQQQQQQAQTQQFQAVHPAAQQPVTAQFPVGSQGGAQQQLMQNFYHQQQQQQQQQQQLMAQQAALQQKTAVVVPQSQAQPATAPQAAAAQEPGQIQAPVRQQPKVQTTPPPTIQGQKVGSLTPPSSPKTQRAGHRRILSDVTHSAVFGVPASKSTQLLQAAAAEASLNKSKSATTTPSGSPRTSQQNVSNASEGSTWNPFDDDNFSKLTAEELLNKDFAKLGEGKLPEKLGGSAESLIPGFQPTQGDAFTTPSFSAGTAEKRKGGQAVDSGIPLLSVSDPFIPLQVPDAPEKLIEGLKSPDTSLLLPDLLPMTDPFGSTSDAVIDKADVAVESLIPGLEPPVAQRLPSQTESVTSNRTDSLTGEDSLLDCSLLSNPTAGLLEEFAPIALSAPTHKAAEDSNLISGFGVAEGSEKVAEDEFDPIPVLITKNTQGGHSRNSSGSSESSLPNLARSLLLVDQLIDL
Procedure: (§6) This example illustrates competitive elution of proteins bound to kinobeads with non-modified test compounds (see particularly the fourth aspect of the invention). The kinobeads (as described in example 1) were contacted with mouse brains lysate, bound proteins were eluted with various test compounds and the released proteins were analysed by mass spectrometry.
as §2, §3
(§7) 1. Resuspend beads with bound proteins (section 2.4) in 1×DP buffer/0.2% NP-40 as 1:3 slurry (volume/volume). 2. Transfer 20 μl the 1:3 slurry into MoBiTech columns (equivalent to 5 μl of beads). 3. Place the column into an Eppendorf tube and centrifuge it for 15 seconds at 800 rpm at 4° C. Close columns with lower lid. 4. Add 10 μl elution buffer containing 1.0 mM of the test compound (concentration ranges of 0.1 to 1.0 mM are suitable). As a control use elution buffer containing 2% DMSO or 2% DMF dependent on the solvent used for dissolving the test compound. Close column with upper lid. 5. Incubate for 30 minutes at 4° C. in an Eppendorf incubator at 700 rpm. 6. Open column (first top, then bottom), put column back into siliconized tube (SafeSeal Microcentrifuge Tubes, cat. no 11270, Sorenson BioScience, Inc.). To harvest the eluate centrifuge 2 minutes at 2.000 rpm in table top centrifuge at room temperature. The typical volume of the eluate is approximately 15 μl. 7. Add 5 μl 4× NuPAGE SDS Sample Buffer (Invitrogen, NP0007) containing 100 mM DTT (DTT has to be added just prior to use). 8. Incubate for 30 minutes at 50° C. 9. Add 1/10 volume of 200 mg/ml iodoacetamide, incubate for 30 min at room temperature, protect from light. This reaction leads to the alkylation of cysteines for mass spectrometry. 10. Before loading samples onto the gel, centrifuge samples for 5 minutes at 15.000 rpm in order to remove precipitates. 11. For protein separation apply 10 μl sample to NuPAGE 4-12% Bis-Tris gel (Invitrogen, NPO335). 2.6 Preparation of Stock Solutions used in this Protocol
as §5

GSK3Aps = molecular target: T2, GSK3Aps (Mus musculus, UniProt Q2NL51)
T2 construct: from tissue; host or cells: mouse brain
T2 sequence (Q2NL51 2-490 limits assumed): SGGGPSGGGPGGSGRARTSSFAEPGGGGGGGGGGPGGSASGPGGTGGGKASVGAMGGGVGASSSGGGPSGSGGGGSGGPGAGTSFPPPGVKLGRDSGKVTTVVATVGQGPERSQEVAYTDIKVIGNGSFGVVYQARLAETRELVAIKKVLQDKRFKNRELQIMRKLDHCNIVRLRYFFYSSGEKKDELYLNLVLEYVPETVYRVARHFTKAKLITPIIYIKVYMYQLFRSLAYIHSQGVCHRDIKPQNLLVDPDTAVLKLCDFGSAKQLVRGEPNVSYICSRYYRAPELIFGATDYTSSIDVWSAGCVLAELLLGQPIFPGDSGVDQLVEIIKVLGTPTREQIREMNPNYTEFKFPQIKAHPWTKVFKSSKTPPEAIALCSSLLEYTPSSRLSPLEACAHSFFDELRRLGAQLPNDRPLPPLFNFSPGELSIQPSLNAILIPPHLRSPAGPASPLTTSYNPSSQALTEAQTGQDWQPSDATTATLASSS
Procedure: as §6, §2, §3, §7, §5

CaMK2a = molecular target: T3, CaMK2a (Mus musculus, UniProt P11798)
T3 construct: […]; from tissue; host or cells: mouse brain
Procedure: as §6, §2, §3, §7, §5

FER = FER (Mus musculus, UniProt P70451)
Chain of FER (P70451 whole entry): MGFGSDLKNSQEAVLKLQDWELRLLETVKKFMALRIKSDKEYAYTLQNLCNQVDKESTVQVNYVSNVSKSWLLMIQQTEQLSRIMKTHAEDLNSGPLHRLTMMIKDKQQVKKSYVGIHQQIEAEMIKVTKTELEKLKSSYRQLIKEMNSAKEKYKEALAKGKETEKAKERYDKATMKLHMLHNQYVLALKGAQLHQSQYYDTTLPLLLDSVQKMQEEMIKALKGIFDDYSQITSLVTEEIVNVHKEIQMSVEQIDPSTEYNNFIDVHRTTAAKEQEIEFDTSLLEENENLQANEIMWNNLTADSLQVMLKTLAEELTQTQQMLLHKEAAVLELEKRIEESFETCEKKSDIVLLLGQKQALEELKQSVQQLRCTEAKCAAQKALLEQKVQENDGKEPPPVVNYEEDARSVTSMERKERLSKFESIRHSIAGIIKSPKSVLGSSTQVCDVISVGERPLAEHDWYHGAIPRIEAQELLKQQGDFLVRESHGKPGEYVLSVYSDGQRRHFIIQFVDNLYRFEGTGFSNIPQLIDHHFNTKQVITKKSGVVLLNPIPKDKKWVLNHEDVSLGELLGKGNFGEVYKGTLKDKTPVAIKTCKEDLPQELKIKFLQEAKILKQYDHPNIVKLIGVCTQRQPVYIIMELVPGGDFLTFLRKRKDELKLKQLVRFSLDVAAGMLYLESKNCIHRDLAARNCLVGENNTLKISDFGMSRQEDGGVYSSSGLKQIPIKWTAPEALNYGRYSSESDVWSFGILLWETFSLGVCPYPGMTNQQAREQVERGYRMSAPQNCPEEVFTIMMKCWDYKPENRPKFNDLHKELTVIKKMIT
Procedure: as §6, §2, §3, §7, §5

CDK5 = CDK5 (Mus musculus, UniProt P49615)
Chain of CDK5 (P49615 whole entry): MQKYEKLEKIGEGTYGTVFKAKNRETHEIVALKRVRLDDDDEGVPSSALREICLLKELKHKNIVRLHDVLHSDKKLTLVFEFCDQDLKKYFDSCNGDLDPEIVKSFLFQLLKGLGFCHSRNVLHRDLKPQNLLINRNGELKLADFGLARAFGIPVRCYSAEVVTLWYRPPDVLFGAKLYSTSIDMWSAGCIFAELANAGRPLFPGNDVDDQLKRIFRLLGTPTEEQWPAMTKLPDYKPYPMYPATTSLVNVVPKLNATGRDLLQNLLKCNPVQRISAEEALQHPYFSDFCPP
Procedure: as §6, §2, §3, §7, §5

Erk2 = molecular target: T4, Erk2 (Mus musculus, UniProt P63085)
T4 construct: […]; from tissue; host or cells: mouse brain
T4 sequence (P63085 whole entry): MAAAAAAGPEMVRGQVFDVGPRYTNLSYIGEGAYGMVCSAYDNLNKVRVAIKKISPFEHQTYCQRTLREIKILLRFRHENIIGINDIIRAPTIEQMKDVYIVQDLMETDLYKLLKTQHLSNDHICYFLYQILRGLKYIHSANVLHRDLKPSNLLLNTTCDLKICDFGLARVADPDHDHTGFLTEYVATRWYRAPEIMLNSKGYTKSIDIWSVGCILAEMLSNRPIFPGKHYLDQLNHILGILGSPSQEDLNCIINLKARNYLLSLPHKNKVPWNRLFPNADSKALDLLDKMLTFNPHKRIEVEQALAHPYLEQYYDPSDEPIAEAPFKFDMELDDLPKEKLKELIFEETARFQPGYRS
Procedure: as §6, §2, §3, §7, §5

CRIK = CRIK (Mus musculus, UniProt P49025)
Procedure: as §6, §2, §3, §7, §5

CaMK2b = CaMK2b (Mus musculus, UniProt P28652)
Procedure: as §6, §2, §3, §7, §5

CaMKK2 = CaMKK2 (Mus musculus, UniProt Q8C078)
Chain of CaMKK2 (Q8C078 whole entry): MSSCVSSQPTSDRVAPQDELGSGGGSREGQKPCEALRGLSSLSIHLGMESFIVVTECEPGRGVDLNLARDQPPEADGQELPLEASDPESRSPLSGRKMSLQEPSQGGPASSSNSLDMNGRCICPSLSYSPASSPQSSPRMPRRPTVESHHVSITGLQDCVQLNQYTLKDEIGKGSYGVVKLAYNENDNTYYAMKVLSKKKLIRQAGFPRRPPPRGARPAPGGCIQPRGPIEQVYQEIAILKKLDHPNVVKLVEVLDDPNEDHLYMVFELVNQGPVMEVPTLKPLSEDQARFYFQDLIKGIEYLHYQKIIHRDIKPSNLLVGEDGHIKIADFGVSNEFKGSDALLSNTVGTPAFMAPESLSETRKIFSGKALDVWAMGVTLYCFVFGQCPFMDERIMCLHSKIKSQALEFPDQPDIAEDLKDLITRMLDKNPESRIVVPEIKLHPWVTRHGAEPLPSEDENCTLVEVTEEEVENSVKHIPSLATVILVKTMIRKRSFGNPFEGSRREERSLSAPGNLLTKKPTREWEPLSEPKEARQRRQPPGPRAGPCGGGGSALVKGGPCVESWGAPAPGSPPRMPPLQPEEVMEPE
Procedure: as §6, §2, §3, §7, §5

MAP2K1 = molecular target: T5, MAP2K1 (Mus musculus, UniProt P31938)
T5 construct: from tissue; host or cells: mouse brain
Procedure: as §6, §2, §3, §7, §5

Erk1ps5 = molecular target: T6, Erk1ps5 (Mus musculus, UniProt Q63844)
T6 construct: […]; from tissue; host or cells: mouse brain
Procedure: as §6, §2, §3, §7, §5

MARK2 = molecular target: T7, MARK2 (Mus musculus, UniProt Q05512)
T7 construct: from tissue; host or cells: mouse brain
Procedure: as §6, §2, §3, §7, §5

JNK2 = molecular target: T8, JNK2 (Mus musculus, UniProt Q9WTU6)
T8 construct: from tissue; host or cells: mouse brain
T8 sequence (Q9WTU6 whole entry): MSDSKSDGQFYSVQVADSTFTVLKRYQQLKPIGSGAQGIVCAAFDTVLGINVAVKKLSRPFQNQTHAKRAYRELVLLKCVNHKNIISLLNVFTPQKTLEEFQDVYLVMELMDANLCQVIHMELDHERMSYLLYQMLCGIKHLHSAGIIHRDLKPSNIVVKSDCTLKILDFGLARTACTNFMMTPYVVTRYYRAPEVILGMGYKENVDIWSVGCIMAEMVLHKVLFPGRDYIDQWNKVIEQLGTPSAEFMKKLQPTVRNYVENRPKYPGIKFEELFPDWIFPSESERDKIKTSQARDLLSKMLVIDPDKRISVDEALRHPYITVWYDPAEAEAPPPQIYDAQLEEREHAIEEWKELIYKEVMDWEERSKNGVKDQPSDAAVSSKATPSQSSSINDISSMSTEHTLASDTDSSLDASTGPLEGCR
Procedure: as §6, §2, §3, §7, §5

CaMK2d = molecular target: T9, CaMK2d (Mus musculus, UniProt Q6PHZ2)
T9 construct: […]; from tissue; host or cells: mouse brain
Procedure: as §6, §2, §3, §7, §5

PYK2 = molecular target: T10, PYK2 (Mus musculus, UniProt Q9QVP9)
T10 construct: from tissue; host or cells: mouse brain
Procedure: as §6, §2, §3, §7, §5

PKCg = molecular target: T11, PKCg (Mus musculus, UniProt P63318)
T11 construct: from tissue; host or cells: mouse brain
Procedure: as §6, §2, §3, §7, §5

RSK1 (Mus musculus) = test system: T12, RSK1 (Mus musculus)
T12 construct: from tissue; host or cells: mouse brain
Procedure: as §6, §2, §3, §7, §5

JNK1 = molecular target: T13, JNK1 (Mus musculus, UniProt Q91Y86)
T13 construct: from tissue; host or cells: mouse brain
Procedure: as §6, §2, §3, §7, §5

p38b = molecular target: T14, p38b (Mus musculus, UniProt Q9WUI1)
T14 construct: from tissue; host or cells: mouse brain
Procedure: as §6, §2, §3, §7, §5

JNK3 = molecular target: T15, JNK3 (Mus musculus, UniProt Q61831)
T15 construct: from tissue; host or cells: mouse brain
Procedure: as §6, §2, §3, §7, §5

p38a = molecular target: T16, p38a (Mus musculus, UniProt P47811)
T16 construct: from tissue; host or cells: mouse brain
Procedure: as §6, §2, §3, §7, §5

T1 sequence (Q9WV60 whole entry): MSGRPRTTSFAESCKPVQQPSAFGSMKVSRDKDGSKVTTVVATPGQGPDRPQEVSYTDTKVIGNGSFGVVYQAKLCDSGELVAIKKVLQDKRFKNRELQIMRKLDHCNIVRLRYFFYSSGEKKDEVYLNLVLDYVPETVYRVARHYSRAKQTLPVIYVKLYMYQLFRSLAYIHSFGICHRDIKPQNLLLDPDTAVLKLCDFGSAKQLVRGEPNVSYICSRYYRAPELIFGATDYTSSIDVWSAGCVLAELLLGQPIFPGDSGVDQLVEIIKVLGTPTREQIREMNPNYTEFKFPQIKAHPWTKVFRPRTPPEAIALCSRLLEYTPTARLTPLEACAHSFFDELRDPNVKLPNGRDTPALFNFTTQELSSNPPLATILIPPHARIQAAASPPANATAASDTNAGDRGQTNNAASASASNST

NCCCn1cc(C2=C(c3c[nH]c4ccccc34)C(=O)NC2=O)c2ccccc21 [CZC1038, Bisindolylmaleimide III, reference compound]
mass spectrometry score, GSK3B (GSK3B): 1176
number of identified peptides, GSK3B (GSK3B): 54
mass spectrometry score, CaMK2g (CaMK2g): 550
number of identified peptides, CaMK2g (CaMK2g): 18
mass spectrometry score, AAK1 (AAK1): 562
number of identified peptides, AAK1 (AAK1): 38
mass spectrometry score, GSK3Aps (GSK3Aps): 1232
number of identified peptides, GSK3Aps (GSK3Aps): 60
mass spectrometry score, CaMK2a (CaMK2a): 911
number of identified peptides, CaMK2a (CaMK2a): 53
mass spectrometry score, FER (FER): 237
number of identified peptides, FER (FER): 6
mass spectrometry score, CDK5 (CDK5): 831
number of identified peptides, CDK5 (CDK5): 19
mass spectrometry score, Erk2 (Erk2): 754
number of identified peptides, Erk2 (Erk2): 50
mass spectrometry score, CR1K (CRIK): 90
number of identified peptides, CR1K (CRIK): 5
mass spectrometry score, CaMK2b (CaMK2b): 834
number of identified peptides, CaMK2b (CaMK2b): 52
mass spectrometry score, CaMKK2 (CaMKK2): 314
number of identified peptides, CaMKK2 (CaMKK2): 6
mass spectrometry score, MAP2K1 (MAP2K1): 208
number of identified peptides, MAP2K1 (MAP2K1): 6
mass spectrometry score, Erk1ps5 (Erk1ps5): 418
number of identified peptides, Erk1ps5 (Erk1ps5): 14
mass spectrometry score, MARK2 (MARK2): 49
number of identified peptides, MARK2 (MARK2): 1
mass spectrometry score, JNK2 (JNK2): 287
number of identified peptides, JNK2 (JNK2): 11
mass spectrometry score, CaMK2d (CaMK2d): 702
number of identified peptides, CaMK2d (CaMK2d): 17
mass spectrometry score, PYK2 (PYK2): 291
number of identified peptides, PYK2 (PYK2): 7
mass spectrometry score, PKCg (PKCg): 107
number of identified peptides, PKCg (PKCg): 2
mass spectrometry score, RSK1 (RSK1 (Mus musculus)): 292
number of identified peptides, RSK1 (RSK1 (Mus musculus)): 7

Oc1ccc(-c2nc(-c3ccc(F)cc3)c(-c3ccncc3)[nH]2)cc1 [CZC7098]
mass spectrometry score, GSK3B (GSK3B): 743
number of identified peptides, GSK3B (GSK3B): 34
mass spectrometry score, AAK1 (AAK1): 198
number of identified peptides, AAK1 (AAK1): 4
mass spectrometry score, JNK1 (JNK1): 540
number of identified peptides, JNK1 (JNK1): 19
mass spectrometry score, GSK3Aps (GSK3Aps): 406
number of identified peptides, GSK3Aps (GSK3Aps): 8
mass spectrometry score, CDK5 (CDK5): 166
number of identified peptides, CDK5 (CDK5): 4
mass spectrometry score, Erk2 (Erk2): 506
number of identified peptides, Erk2 (Erk2): 20
mass spectrometry score, p38b (p38b): 80
number of identified peptides, p38b (p38b): 2
mass spectrometry score, JNK3 (JNK3): 542
number of identified peptides, JNK3 (JNK3): 30
mass spectrometry score, p38a (p38a): 295
number of identified peptides, p38a (p38a): 10
mass spectrometry score, JNK2 (JNK2): 170
number of identified peptides, JNK2 (JNK2): 5
